Experimental data taken from article PMC9321829 (Chembiochem, 2022).

Target: T1, TAL amo (Aeromonas molluscorum, UniProt R1H7C8)
T1 sequence (R1H7C8 1-531): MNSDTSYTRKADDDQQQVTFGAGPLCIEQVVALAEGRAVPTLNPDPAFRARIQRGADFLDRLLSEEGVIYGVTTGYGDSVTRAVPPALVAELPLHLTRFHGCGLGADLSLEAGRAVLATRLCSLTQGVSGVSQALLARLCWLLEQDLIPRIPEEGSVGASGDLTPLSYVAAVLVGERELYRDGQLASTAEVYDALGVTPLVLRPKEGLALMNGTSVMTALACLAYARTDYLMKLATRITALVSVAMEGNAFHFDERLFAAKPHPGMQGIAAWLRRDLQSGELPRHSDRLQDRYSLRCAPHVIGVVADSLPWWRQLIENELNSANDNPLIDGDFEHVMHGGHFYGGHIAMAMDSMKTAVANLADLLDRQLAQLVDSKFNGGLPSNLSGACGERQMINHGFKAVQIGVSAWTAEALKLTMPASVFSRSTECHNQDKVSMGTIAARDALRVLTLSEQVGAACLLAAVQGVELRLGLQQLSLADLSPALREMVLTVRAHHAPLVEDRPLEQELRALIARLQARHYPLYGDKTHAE
Experiment: UV assay, cinnamic acid formation at […] nm
Type: biochemical
Conditions: 10 mM substrate, 20 mM PBS pH 7.5, 25 °C

Structure (SMILES): N[C@@H](Cc1ccccc1)C(=O)O [L-phenylalanine]
- UV assay, cinnamic acid formation at 290 nm: They presented a slight activity towards L‐phenylalanine.
